Patent publication US10526345B2, “Compounds as GPR119 agonists” (Mankind Pharma Ltd., priority 2016, dated 2020)

What follows are molecules tested against T1, hGPR119 (Homo sapiens, UniProt Q8TDV5) (assay: In vitro cyclic AMP assay (Cisbio dynamic 2 HTRF kit) in CHO-hGPR119 cells). Settings: 1 h, cAMP, compound at 1 μM, 60 min, read-out: Induction (% induction at 1 μM).
T1 construct: expressed in transfected cells; host or cells: CHO
T1 sequence (Q8TDV5 1-335): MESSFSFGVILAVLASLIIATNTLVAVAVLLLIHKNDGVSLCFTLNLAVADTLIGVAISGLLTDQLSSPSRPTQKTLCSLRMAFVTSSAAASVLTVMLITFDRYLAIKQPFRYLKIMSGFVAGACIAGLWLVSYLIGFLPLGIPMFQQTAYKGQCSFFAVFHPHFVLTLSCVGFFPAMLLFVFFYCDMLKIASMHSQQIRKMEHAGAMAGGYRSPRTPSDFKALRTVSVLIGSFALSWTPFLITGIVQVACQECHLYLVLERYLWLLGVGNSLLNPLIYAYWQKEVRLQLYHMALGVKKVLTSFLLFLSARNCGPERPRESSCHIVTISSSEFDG
Format: cell-based

| Compound | activation at 1 µM |
| --- | --- |
| CC(C)c1noc(N2CCC(COc3nc4ccc(-c5ccncc5F)nc4s3)CC2)n1 [Compound 1084, 5-(4-(((5-(3-fluoropyridin-4-yl)thiazolo[5,4-b]pyridin-2-yl)oxy)methyl)piperidin-1-yl)-3-isopropyl-1,2,4-oxadiazole] | 12% |
| CC(C)c1noc(N2CCC(C(C)Oc3nc4ccc(-c5cnc(Cl)nc5)nc4s3)CC2)n1 (stereo not drawn) [Compound 1116, 5-(4-(1-((5-(2-chloropyrimidin-5-yl)thiazolo[5,4-b]pyridin-2-yl)oxy)ethyl)piperidin-1-yl)-3-isopropyl-1,2,4-oxadiazole] | 61% |
| CC(Oc1nc2ccc(-c3ccc(S(C)(=O)=O)cc3)nc2s1)C1CCN(c2nc(C3CC3)no2)CC1 (stereo not drawn) [Compound 1048, 3-cyclopropyl-5-(4-(1-((5-(4-(methylsulfonyl)phenyl)thiazolo[5,4-b]pyridin-2-yl)oxy)ethyl)piperidin-1-yl)-1,2,4-oxadiazole] | 57% |
| CC(C)c1noc(N2CCC(COc3nc4ccc(-c5ccnc(F)c5)nc4s3)CC2)n1 [Compound 1086, 5-(4-(((5-(2-fluoropyridin-4-yl)thiazolo[5,4-b]pyridin-2-yl)oxy)methyl)piperidin-1-yl)-3-isopropyl-1,2,4-oxadiazole] | 2% |
| Cc1ccc(S(=O)(=O)N2CC=C(c3nc4ccc(-c5ccc(S(C)(=O)=O)cc5)nc4s3)CC2)cc1 [Compound 1026, 5-(4-(methylsulfonyl)phenyl)-2-(1-tosyl-1,2,3,6-tetrahydropyridin-4-yl)thiazolo[5,4-b]pyridine] | 5% |
| CNS(=O)(=O)c1ccc(-c2ccc3nc(N4CCC(c5nc(C(C)C)no5)CC4)sc3n2)cc1 [Compound 1072, 4-(2-(4-(3-isopropyl-1,2,4-oxadiazol-5-yl)piperidin-1-yl)thiazolo[5,4-b]pyridin-5-yl)-N-methylbenzenesulfonamide] | 17% |
| CC(C)c1noc(N2CCC(C(C)Oc3nc4ccc(-c5ccc(C(=O)N(C)C)cc5F)nc4s3)CC2)n1 (stereo not drawn) [Compound 1046, 3-fluoro-4-(2-(1-(1-(3-isopropyl-1,2,4-oxadiazol-5-yl)piperidin-4-yl)ethoxy)thiazolo[5,4-]pyridin-5-yl)-N,N-dimethylbenzamide] | 1% |
| CC(C)c1nc(N2CCC(C(C)Oc3nc4ccc(-c5ccc(S(C)(=O)=O)cc5)nc4s3)CC2)no1 (stereo not drawn) [Compound 1058, 5-isopropyl-3-(4-(1-((5-(4-(methylsulfonyl)phenyl)thiazolo[5,4-b]pyridin-2-yl)oxy)ethyl)piperidin-1-yl)-1,2,4-oxadiazole] | 48% |
| CC(C)c1noc(N2CCC(C(C)Oc3nc4ccc(-c5ccc(C(=O)N(C)C6CC6)cc5)nc4s3)CC2)n1 (stereo not drawn) [Compound 1052, N-cyclopropyl-4-(2-(1-(1-(3-isopropyl-1,2,4-oxadiazol-5-yl)piperidin-4-yl)ethoxy)thiazolo[5,4-b]pyridin-5-yl)-N-methylbenzamide] | 13% |
| CC(Oc1nc2ccc(-c3ccc(S(C)(=O)=O)nc3)nc2s1)C1CCN(c2ncc(C(F)(F)F)cn2)CC1 (stereo not drawn) [Compound 1159, 2-(1-(1-(5-(trifluoromethyl)pyrimidin-2-yl)piperidin-4-yl)ethoxy)-5-(6-(methylsulfonyl)pyridin-3-yl)thiazolo[5,4-b]pyridine] | 70% |
| CN(C)C(=O)N1CCC(c2nc3ccc(-c4ccc(S(C)(=O)=O)cc4)nc3s2)CC1 [Compound 1028, N,N-dimethyl-4-(5-(4-(methylsulfonyl)phenyl)thiazolo[5,4-b]pyridin-2-yl)piperidine-1-carboxamide] | 2% |
| CC(C)c1noc(N2CCC(C(C)Oc3nc4ccc(-c5ccc(S(C)(=O)=O)cc5)nc4s3)CC2)n1 (stereo not drawn) [Compound 1020, 3-isopropyl-5-(4-(1-((5-(4-(methylsulfonyl)phenyl)thiazolo[5,4-b]pyridin-2-yl)oxy)ethyl)piperidin-1-yl)-1,2,4-oxadiazole] | 68% |

The remaining lines, values ahead:

| activation at 1 µM | Compound |
| --- | --- |
| 77% | CC(C)c1noc(N2CCC([C@H](C)Oc3nc4ccc(-c5ccc(C(F)(F)F)nc5)nc4s3)CC2)n1 [Compound 1152, 2-(1-(1-(3-isopropyl-1,2,4-oxadiazol-5-yl)piperidin-4-yl)ethoxy)-5-(6-(trifluoromethyl)pyridin-3-yl)thiazolo[5,4-b]pyridine] |
| 78% | CCCc1cnc(N2CCC(C(C)Oc3nc4ncc(-c5ccc(S(C)(=O)=O)cc5)nc4s3)CC2)nc1 (stereo not drawn) [Compound 1110, 6-(4-(methylsulfonyl)phenyl)-2-(1-(1-(5-propylpyrimidin-2-yl)piperidin-4-yl)ethoxy)thiazolo[4,5-b]pyrazine] |
| 47% | CC(C)c1noc(C2CCN(c3nc4ccc(-c5ccc(C(=O)N6CCOCC6)cc5)nc4s3)CC2)n1 [Compound 1029, (4-(2-(4-(3-isopropyl-1,2,4-oxadiazol-5-yl)piperidin-1-yl)thiazolo[5,4-b]pyridin-5-yl)phenyl)(morpholino)methanone] |
| 5% | CC(C)OC(=O)N1CCN(c2nc3ccc(-c4ccc(S(C)(=O)=O)cc4)nc3s2)CC1 [Compound 1012, isopropyl 4-(5-(4-(methylsulfonyl)phenyl)thiazolo[5,4-b]pyridin-2-yl)piperazine-1-carboxylate] |
| 11% | CC(C)OC(=O)N1CCC(c2nc3ccc(-c4ccc(S(C)(=O)=O)cc4)nc3s2)CC1 [Compound 1013, isopropyl 4-(5-(4-(methylsulfonyl)phenyl)thiazolo[5,4-b]pyridin-2-yl)piperidine-1-carboxylate] |
| 67% | CCCc1cnc(N2CCC(C(C)Oc3nc4ccc(-c5ccncc5)nc4s3)CC2)nc1 (stereo not drawn) [Compound 1150, 2-(1-(1-(5-propylpyrimidin-2-yl)piperidin-4-yl)ethoxy)-5-(pyridin-4-yl)thiazolo[5,4-b]pyridine] |
| 72% | CC(C)c1noc(N2CCC(C(C)Oc3nc4ccc(-c5ccc(S(=O)(=O)C6CC6)nc5)nc4s3)CC2)n1 (stereo in doubt) [Compound 1164, 2-((S)-1-(1-(3-isopropyl-1,2,4-oxadiazol-5-yl)piperidin-4-yl)ethoxy)-5-(6-(cyclopropylsulfonyl)pyridin-3-yl)thiazolo[5,4-b]pyridine] |
| 5% | CC(C)c1noc(N2CC[C@@H](COc3nc4ccc(-c5ccc(S(C)(=O)=O)cc5)nc4s3)[C@H](F)C2)n1 [Compound 1129, 5-((3S,4S)-3-fluoro-4-(((5-(4-(methylsulfonyl)phenyl)thiazolo[5,4-b]pyridin-2-yl)oxy)methyl)piperidin-1-yl)-3-isopropyl-1,2,4-oxadiazole] |
| 65% | CCc1cnc(N2CCC([C@H](C)Oc3nc4ccc(-c5ccc(C(F)(F)F)nc5)nc4s3)CC2)nc1 [Compound 1154, (S)-2-(1-(1-(5-ethylpyrimidin-2-yl)piperidin-4-yl)ethoxy)-5-(6-(trifluoromethyl)pyridin-3-yl)thiazolo[5,4-b]pyridine] |
| 39% | CC(C)c1noc(N2CCC(Oc3nc4ccc(-c5ccc(S(C)(=O)=O)cc5)nc4s3)C(F)C2)n1 (stereo not drawn) [Compound 1060, 5-(3-fluoro-4-((5-(4-(methylsulfonyl)phenyl)thiazolo[5,4-b]pyridin-2-yl)oxy)piperidin-1-yl)-3-isopropyl-1,2,4-oxadiazole] |
| 13% | CC(C)c1noc(C2CCN(c3nc4ccc(-c5ccc(S(C)(=O)=O)cc5)nc4s3)C2)n1 (stereo not drawn) [Compound 1021, 3-isopropyl-5-(1-(5-(4-(methylsulfonyl)phenyl)thiazolo[5,4-b]pyridin-2-yl)pyrrolidin-3-yl)-1,2,4-oxadiazole] |
| 13% | COCC[S+]([O-])c1ccc(-c2ccc3nc(OC(C)C4CCN(c5nc(C(C)C)no5)CC4)sc3n2)cc1 (stereo not drawn) [Compound 1068, 3-isopropyl-5-(4-(1-((5-(4-((2-methoxyethyl)sulfinyl)phenyl)thiazolo[5,4-b]pyridin-2-yl)oxy)ethyl)piperidin-1-yl)-1,2,4-oxadiazole] |
| 72% | CC(C)c1noc(N2CCC(C(Oc3nc4ccc(-c5ccc(S(C)(=O)=O)nc5)nc4s3)C(F)(F)F)CC2)n1 (stereo not drawn) [Compound 1102, 3-isopropyl-5-(4-(2,2,2-trifluoro-1-((5-(6-(methylsulfonyl)pyridin-3-yl)thiazolo[5,4-b]pyridin-2-yl)oxy)ethyl)piperidin-1-yl)-1,2,4-oxadiazole] |
| 34% | CC(C)c1nnc(N2CCC(C(C)Oc3nc4ccc(-c5ccc(S(C)(=O)=O)cc5)nc4s3)CC2)o1 (stereo not drawn) [Compound 1097, 2-isopropyl-5-(4-(1-((5-(4-(methylsulfonyl)phenyl)thiazolo[5,4-b]pyridin-2-yl)oxy)ethyl)piperidin-1-yl)-1,3,4-oxadiazole] |
| 64% | CCc1cnc(N2CCC(C(C)Oc3nc4ccc(-c5ccncc5)nc4s3)CC2)nc1 (stereo not drawn) [Compound 1149, 2-(1-(1-(5-ethylpyrimidin-2-yl)piperidin-4-yl)ethoxy)-5-(pyridin-4-yl)thiazolo[5,4-b]pyridine] |

Same assay, conditions: cAMP

| EC50 | Compound |
| --- | --- |
| 50 to 100 nM | CC(C)c1noc(N2CCC([C@H](C)Oc3nc4ccc(-c5ccc(C(F)(F)F)nc5)nc4s3)CC2)n1 [Compound 1152, 2-(1-(1-(3-isopropyl-1,2,4-oxadiazol-5-yl)piperidin-4-yl)ethoxy)-5-(6-(trifluoromethyl)pyridin-3-yl)thiazolo[5,4-b]pyridine] |
| 25 to 50 nM | CCc1cnc(N2CCC([C@H](C)Oc3nc4ccc(-c5ccc(C(F)(F)F)nc5)nc4s3)CC2)nc1 [Compound 1154, (S)-2-(1-(1-(5-ethylpyrimidin-2-yl)piperidin-4-yl)ethoxy)-5-(6-(trifluoromethyl)pyridin-3-yl)thiazolo[5,4-b]pyridine] |
| 50 to 100 nM | CC(C)c1noc(N2CCC([C@H](C)Oc3nc4ccc(-c5ccncc5F)nc4s3)CC2)n1 [Compound 1096, (S)-5-(4-(1-((5-(3-fluoropyridin-4-yl)thiazolo[5,4-b]pyridin-2-yl)oxy)ethyl)piperidin-1-yl)-3-isopropyl-1,2,4-oxadiazole] |
| 100 to 500 nM | CC(C)c1noc(N2CCC(C(C)Oc3nc4ccc(-c5ccc(S(C)(=O)=O)cc5)nc4s3)CC2)n1 (stereo not drawn) [Compound 1020, 3-isopropyl-5-(4-(1-((5-(4-(methylsulfonyl)phenyl)thiazolo[5,4-b]pyridin-2-yl)oxy)ethyl)piperidin-1-yl)-1,2,4-oxadiazole] |

Same assay, conditions: cAMP, compound at 1 μM, 60 min

| Induction (% induction at 1 μM) | Compound |
| --- | --- |
| 35% | CC(C)c1noc(N2CCC([C@H](C)Oc3nc4ccc(-c5ccncc5F)nc4s3)CC2)n1 [Compound 1076, (S)-5-(4-(1-((5-(3-fluoropyridin-4-yl)thiazolo[5,4-b]pyridin-2-yl)oxy)ethyl)piperidin-1-yl)-3-isopropyl-1,2,4-oxadiazole] |
| 66% | CC(C)c1noc(N2CCC([C@H](C)Oc3nc4ccc(-c5ccncc5F)nc4s3)CC2)n1 [Compound 1096, (S)-5-(4-(1-((5-(3-fluoropyridin-4-yl)thiazolo[5,4-b]pyridin-2-yl)oxy)ethyl)piperidin-1-yl)-3-isopropyl-1,2,4-oxadiazole] |
